For 18 compounds, TGI results are on record in PubChem BioAssay (NCI).

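A five-concentration, 48-hour dose response in 96-well plates underlies each endpoint, interpolated linearly between surrounding concentrations. At the TGI there is no net growth.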

Test systems include 786-0 renal; DU-145 prostate; HCT-116 colon; HCT-15 colon; MOLT-4 leukemia; RXF 393 renal; SF-268 CNS; SF-295 CNS; SK-MEL-28 melanoma; SW-620 colon; TK-10 renal.
Common to all, as to experiment: inhibition of tumour cell growth, NCI panel, 48 h

As for `O=[N+]([O-])c1ccc(C(O)(C#CCN2CCCC2)c2ccccc2)cc1` (stereo not drawn), the TGI with 786-0 renal is more than 100 µM; in the experiment on DU-145 prostate, more than 100 µM; in the experiment on HCT-116 colon, more than 100 µM; in the experiment with HCT-15 colon, more than 100 µM; in the experiment on MOLT-4 leukemia, 64.4 µM; with RXF 393 renal, more than 100 µM. Further, the TGI with SF-268 CNS is more than 100 µM; in the experiment with SF-295 CNS, more than 100 µM; in the experiment on SK-MEL-28 melanoma, 34 µM; in the experiment on SW-620 colon, more than 100 µM; in the experiment with TK-10 renal, more than 100 µM.

Take `COc1cccc(C2c3cc4c(cc3OC3COC(=O)C32)OCO4)c1OC` (stereo not drawn): the TGI in the experiment with 786-0 renal, with DU-145 prostate, in the experiment on HCT-116 colon, in the experiment on HCT-15 colon, in the experiment on MOLT-4 leukemia and in the experiment with RXF 393 renal was more than 100 µM throughout. In addition, the TGI in the experiment with SF-268 CNS, in the experiment on SF-295 CNS, in the experiment with SK-MEL-28 melanoma, with SW-620 colon and in the experiment on TK-10 renal was more than 100 µM throughout.

`COC(=O)C(Cc1c[nH]c2ccccc12)N=C1Nc2ccncc2S(=O)(=O)N1c1cccc(OC(C)C)c1` (stereo not drawn): the TGI is more than 100 µM with 786-0 renal; more than 100 µM in the experiment on DU-145 prostate; more than 100 µM in the experiment on HCT-116 colon; more than 100 µM in the experiment on HCT-15 colon; 75.8 µM in the experiment with MOLT-4 leukemia; more than 100 µM in the experiment on RXF 393 renal. Also, the TGI in the experiment with SF-268 CNS, with SF-295 CNS, in the experiment on SK-MEL-28 melanoma, in the experiment on SW-620 colon and in the experiment on TK-10 renal was more than 100 µM each time.

On to `c1ccc(CC2COC(c3cccs3)=N2)cc1` (stereo not drawn), for which the TGI in the experiment on 786-0 renal, with DU-145 prostate, in the experiment on HCT-116 colon, in the experiment on HCT-15 colon, with MOLT-4 leukemia and in the experiment with RXF 393 renal was more than 100 µM throughout. The TGI in the experiment with SF-268 CNS, with SF-295 CNS, in the experiment on SK-MEL-28 melanoma, with SW-620 colon and with TK-10 renal was more than 100 µM throughout.

On to `O=C1c2c(Br)sc(Br)c2[C@@H](NC(=O)C(F)(F)F)C1Br` (stereo partly drawn), for which the TGI in the experiment on 786-0 renal is 5.13 µM; with DU-145 prostate it was 18.3 µM; in the experiment with HCT-116 colon it was 2.76 µM; with HCT-15 colon, 4.61 µM; with MOLT-4 leukemia it was 5.32 µM; with RXF 393 renal, 5.22 µM. Also, the TGI in the experiment on SF-268 CNS is 15.2 µM; in the experiment on SF-295 CNS, 31.6 µM; in the experiment with SK-MEL-28 melanoma, 8.51 µM; with SW-620 colon, more than 21.9 µM; in the experiment with TK-10 renal it was 30.5 µM.

Consider `CN1CCN(c2ccc3c(c2)NCC(=O)N3)CC1`, for which the TGI in the experiment on 786-0 renal, in the experiment on DU-145 prostate, in the experiment on HCT-116 colon, in the experiment with HCT-15 colon, with MOLT-4 leukemia and in the experiment with RXF 393 renal was more than 100 µM throughout. Further, the TGI in the experiment on SF-268 CNS, in the experiment on SF-295 CNS, in the experiment on SK-MEL-28 melanoma, with SW-620 colon and in the experiment on TK-10 renal was more than 100 µM throughout.

On to `Clc1ccc(C2ON=C(c3ccccc3)N2C23CC4CC(CC(C4)C2)C3)cc1` (stereo not drawn), for which the TGI with 786-0 renal, in the experiment with DU-145 prostate, in the experiment on HCT-116 colon, in the experiment with HCT-15 colon, with MOLT-4 leukemia and in the experiment with RXF 393 renal was more than 10 µM each time. Further, the TGI with SF-268 CNS, in the experiment on SF-295 CNS, in the experiment on SK-MEL-28 melanoma, with SW-620 colon and in the experiment with TK-10 renal was more than 10 µM throughout.

For `N#Cc1nc(C#N)n(S(=O)(=O)c2ccccc2)c1NS(=O)(=O)c1ccccc1`, the TGI in the experiment with 786-0 renal, in the experiment with DU-145 prostate, in the experiment on HCT-116 colon, in the experiment on HCT-15 colon, in the experiment on MOLT-4 leukemia and in the experiment with RXF 393 renal was more than 100 µM each time. For the same compound, the TGI in the experiment on SF-268 CNS, in the experiment with SF-295 CNS, with SK-MEL-28 melanoma, in the experiment on SW-620 colon and with TK-10 renal was more than 100 µM in each case.

Consider `CC(C)(C)NC(=O)CCC1C(C(=O)NC(C)(C)C)C2(Cl)C(Cl)=C(Cl)C1(Cl)C2(Cl)Cl` (stereo not drawn), for which the TGI with 786-0 renal, in the experiment on DU-145 prostate, in the experiment on HCT-116 colon, with HCT-15 colon, in the experiment with MOLT-4 leukemia and in the experiment on RXF 393 renal was more than 100 µM throughout. Also, the TGI in the experiment on SF-268 CNS, in the experiment with SF-295 CNS, in the experiment on SK-MEL-28 melanoma, in the experiment with SW-620 colon and in the experiment on TK-10 renal was more than 100 µM in each case.

Take `CCc1ccc2c(c1)N(CC(C)CN(C)C)c1ccccc1S2` (stereo not drawn): the TGI came out at 12.2 µM in the experiment with 786-0 renal; 21.4 µM in the experiment on DU-145 prostate; 11 µM with HCT-116 colon; 17.8 µM in the experiment on HCT-15 colon; 1.91 µM in the experiment with MOLT-4 leukemia; 10.3 µM in the experiment on RXF 393 renal. The TGI with SF-268 CNS is 20.5 µM; with SF-295 CNS, 21.5 µM; with SK-MEL-28 melanoma it was 5.45 µM; with SW-620 colon, 14.6 µM; in the experiment with TK-10 renal, 11.4 µM.

Take `O=C(O)c1cc(CCc2cc(O)ccc2O)ccc1O`: the TGI in the experiment on 786-0 renal, with DU-145 prostate, in the experiment on HCT-116 colon, in the experiment on HCT-15 colon, in the experiment on MOLT-4 leukemia and with RXF 393 renal was more than 100 µM in each case. Also, the TGI in the experiment with SF-268 CNS, with SF-295 CNS, with SK-MEL-28 melanoma, with SW-620 colon and in the experiment with TK-10 renal was more than 100 µM throughout.

With `CCOC(=O)Cn1nnc2ccc(Nc3nc4ccccc4nc3-c3ccccc3)cc21`, the TGI in the experiment with 786-0 renal is more than 100 µM; in the experiment on DU-145 prostate, 31.8 µM; with HCT-116 colon, more than 100 µM; with HCT-15 colon, more than 100 µM; in the experiment on MOLT-4 leukemia, more than 100 µM; in the experiment on RXF 393 renal, more than 100 µM. For the same compound, the TGI is more than 100 µM with SF-268 CNS; more than 100 µM in the experiment on SF-295 CNS; more than 100 µM in the experiment on SK-MEL-28 melanoma; more than 100 µM in the experiment on SW-620 colon; 62.5 µM with TK-10 renal.

Turning to `CNNC(=NS(=O)(=O)c1cc(C#N)c(NNC)cc1S)NNC`, the TGI in the experiment with 786-0 renal, in the experiment with DU-145 prostate, with HCT-116 colon, with HCT-15 colon, in the experiment with MOLT-4 leukemia and with RXF 393 renal was more than 10 µM in each case. The TGI with SF-268 CNS, in the experiment with SF-295 CNS, in the experiment with SK-MEL-28 melanoma, in the experiment on SW-620 colon and in the experiment with TK-10 renal was more than 10 µM throughout.

`NC(Cc1ccc(S(=O)(=O)O)cc1)C(=O)NC(Cc1ccc(S(=O)(=O)O)cc1)C(=O)NC(Cc1ccc(S(=O)(=O)O)cc1)C(=O)NC(Cc1ccc(S(=O)(=O)O)cc1)C(=O)O` (stereo not drawn): the TGI in the experiment on 786-0 renal, with DU-145 prostate, with HCT-116 colon, with HCT-15 colon, in the experiment on MOLT-4 leukemia and in the experiment on RXF 393 renal was more than 100 µM in each case. The TGI in the experiment with SF-268 CNS, in the experiment on SF-295 CNS, in the experiment on SK-MEL-28 melanoma, in the experiment on SW-620 colon and with TK-10 renal was more than 100 µM in each case.

For `Nc1ncnc2c1ncn2[C@@H]1O[C@H](COC(c2ccccc2)(c2ccccc2)c2ccccc2)[C@@H](OC(=S)Oc2ccccc2)[C@@H]1F`, the TGI in the experiment on 786-0 renal amounted to 15.9 µM; in the experiment with DU-145 prostate it was 30.2 µM; in the experiment on HCT-116 colon it was 13.8 µM; in the experiment with HCT-15 colon, 12.5 µM; with MOLT-4 leukemia, 5.98 µM; in the experiment with RXF 393 renal, 12.3 µM. In addition, the TGI with SF-268 CNS is 12.4 µM; in the experiment with SF-295 CNS, 31.1 µM; in the experiment with SK-MEL-28 melanoma, 33.5 µM; in the experiment with SW-620 colon, 29.7 µM; with TK-10 renal it was 32.3 µM.

With `C1CSCCSCCCSCCSCCCSCCSCCCSCCSC1`, the TGI in the experiment on 786-0 renal, with DU-145 prostate, with HCT-116 colon, with HCT-15 colon, in the experiment with MOLT-4 leukemia and in the experiment on RXF 393 renal was more than 100 µM each time. Besides, the TGI with SF-268 CNS, with SF-295 CNS, with SK-MEL-28 melanoma, with SW-620 colon and with TK-10 renal was more than 100 µM each time.

With `CCN(CCN(CC)C(=O)Nc1ccccc1)C(=O)Nc1ccccc1`, the TGI in the experiment with 786-0 renal, in the experiment with DU-145 prostate, with HCT-116 colon, in the experiment with HCT-15 colon, with MOLT-4 leukemia and in the experiment with RXF 393 renal was more than 100 µM in each case. Also, the TGI in the experiment on SF-268 CNS, with SF-295 CNS, with SK-MEL-28 melanoma, in the experiment with SW-620 colon and with TK-10 renal was more than 100 µM in each case.

In the case of `CC(=O)OCC1OC(OCCCOP(=S)(OCCC#N)OCC2OC(n3ccc(N)nc3=O)C(OC(=O)c3ccccc3)C2OC(=O)c2ccccc2)C(OC(C)=O)C(OC(C)=O)C1OC(C)=O` (stereo not drawn), the TGI in the experiment with 786-0 renal, in the experiment on DU-145 prostate, with HCT-116 colon, with HCT-15 colon, with MOLT-4 leukemia and in the experiment on RXF 393 renal was more than 100 µM each time. Besides, the TGI in the experiment on SF-268 CNS, in the experiment with SF-295 CNS, in the experiment with SK-MEL-28 melanoma, in the experiment with SW-620 colon and in the experiment with TK-10 renal was more than 100 µM each time.
